Measurements from ChEMBL document CHEMBL5137054, “Xyloketal B Reverses Nutritional Hepatic Steatosis, Steatohepatitis, and Liver Fibrosis through Activation of the PPARα/PGC1α Signaling Pathway” (J Nat Prod, 2022).
Calls of active or inactive are those of the source.

Assays:
Assay type in all cases: functional, organism-based
Details in all cases: time 6.0 weeks
Mus musculus [1] = test: Upregulation of Cpt1c gene transcriptional level in HFD-induced C57BL/6J mouse model of NAFL at 15 mg/kg/day, ip administered from week 7 to week 12 by qRT-PCR analysis
Mus musculus [2] = test: Upregulation of Cyp4a14 gene transcriptional level in HFD-induced C57BL/6J mouse model of NAFL at 15 mg/kg/day, ip administered from week 7 to week 12 by qRT-PCR analysis
Mus musculus [3] = test: Upregulation of peroxisomal bifunctional enzyme gene transcriptional level in HFD-induced C57BL/6J mouse model of NAFL at 15 mg/kg/day, ip administered from week 7 to week 12 by qRT-PCR analysis
Mus musculus [4] = test: Upregulation of Cpt1b gene transcriptional level in HFD-induced C57BL/6J mouse model of NAFL at 15 mg/kg/day, ip administered from week 7 to week 12 by qRT-PCR analysis
Mus musculus [5] = test: Upregulation of long-chain specific acyl-CoA dehydrogenase gene transcriptional level in HFD-induced C57BL/6J mouse model of NAFL at 15 mg/kg/day, ip administered from week 7 to week 12 by qRT-PCR analysis
Mus musculus [6] = test: Upregulation of Cpt1a gene transcriptional level in HFD-induced C57BL/6J mouse model of NAFL at 15 mg/kg/day, ip administered from week 7 to week 12 by qRT-PCR analysis
Mus musculus [7] = test: Upregulation of Cyp4a10 gene transcriptional level in HFD-induced C57BL/6J mouse model of NAFL at 15 mg/kg/day, ip administered from week 7 to week 12 by qRT-PCR analysis
Mus musculus [8] = test: Upregulation of Acox2 gene transcriptional level in HFD-induced C57BL/6J mouse model of NAFL at 15 mg/kg/day, ip administered from week 7 to week 12 by qRT-PCR analysis
Mus musculus [9] = test: Upregulation of Medium-chain specific acyl-CoA dehydrogenase gene transcriptional level in HFD-induced C57BL/6J mouse model of NAFL at 15 mg/kg/day, ip administered from week 7 to week 12 by qRT-PCR analysis
Mus musculus [10] = test: Upregulation of Acaa1a gene transcriptional level in HFD-induced C57BL/6J mouse model of NAFL at 15 mg/kg/day, ip administered from week 7 to week 12 by qRT-PCR analysis
Mus musculus [11] = test: Upregulation of Acox1 gene transcriptional level in HFD-induced C57BL/6J mouse model of NAFL at 15 mg/kg/day, ip administered from week 7 to week 12 by qRT-PCR analysis

Measured: Activity

CC(C)c1c(C(=O)Nc2ccccc2)c(-c2ccccc2)c(-c2ccc(F)cc2)n1CC[C@@H](O)C[C@@H](O)CC(=O)O
active: all assays above
